For test [1], the target named is T1, PI3Kα H1047R protein (p110-α H1047R complexed with truncated p85-α) (Homo sapiens, UniProt P42336, H1047R).
T1 construct: The protein contained a full-length p110-α subunit harboring the H1047R mutation
Briefly: Surface Plasmon Resonance (SPR) binding, wortmannin-blocked protein. As to conditions: Biacore 8K, ATP site blocked with 1 μM wortmannin, 25° C. The method, then:
Surface Plasmon Resonance (SPR)
SPR experiments were performed on a Biacore 8K instrument. A biotinylated recombinant PI3Kα H1047R protein was used in this study. The protein contained a full-length p110-α subunit harboring the H1047R mutation with an N-terminal AviTag, complexed with a truncated p85-α subunit (amino acid residues 322-694). The protein was first incubated with 1 μM wortmannin for 30 min at RT to covalently block the ATP binding site, then immobilized onto a streptavidin sensor chip by flowing the protein through the sensor chip at typically 20 μg/mL concentration and 2 μL/min flow rate for 1200 seconds. Compound binding affinities were measured in the multi-cycle kinetics mode, at 90 μL/min flow rate with 90 seconds association time and 240 seconds dissociation time. The running buffer contained 50 mM Tris, pH 7.5, 150 mM NaCl, 0.01% Brij35, 1 mM DTT, 1 mM MgCl2, 0.05% Tween-20 and 2% DMSO. Temperature was maintained at 25° C. during experiments.
On the technique in general: Surface plasmon resonance follows binding to a sensor surface in real time, without labels.

For test [2], the system named is T47D pAKT (S473), PI3Kα H1047R mutation present. Nature of the test: HTRF pAKT-T47D.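 Note: assay medium was RPMI with 10% FBS and 0.2 units/ml bovine insulin, without phenol red.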 The conditions noted are these: Homo sapiens, T47D, 1 h, read-out: T47D pAKT IC50 (nM), T47D.1 cells, pAKT (S473) HTRF, 1 hour. (TR-FRET usually uses a lanthanide donor and a delayed reading to cut background.)
Procedure: Homogenous Time-Resolved Fluorescence (HTRF)—pAKT-T47D
Compounds were assayed using homogeneous time-resolved fluorescence (HTRF).
Gibco RPMI 1640 Medium, no phenol red; Gibco RPMI 1640 Medium; Gibco Trypsin-EDTA (0.5%), no phenol red; Gibco DPBS; Trypan blue solution 0.4% (Corning); Avantor Seradigm Premium Grade Fetal Bovine Serum (FBS); Greiner 784080-384 well TC treated white plates; pAKT (Ser473) HTRF; Gibco Insulin, human recombinant, zinc solution; Gibco Recovery Cell Culture Freezing Medium; Countess II FL Automated Cell Counter (ThermoFisher); Countess II Slides (ThermoFisher); Microscope; and PHERAstar FSX Microplate Reader (BMG LABTECH, Inc.).
The scinamic cell line ID was T47D.1, the HTRF detection was pAKT (S473), a PI3Kα H1047R mutation was present, the seeding density was 5000, the timepoint was 1 hour, and the medium used was RPMI+10% FBS (no phenol red)+0.2 units/ml bovine insulin.
• The cell density was not permitted to reach 100% confluence. The cells were split 1:5 when they reached ˜80% confluence. • Cells were split twice a week (Mon and Fri). • Cells over passage 18 were not used (˜2 months of maintenance). • Antibiotics were not used for tissue culture maintenance or assays. […] Protocol Day1
The procedure was as follows: • 1. Prepared ARP: • a. Stamped 12.5 nL from 10 μmM source plate to destination plate using Echo. Sealed plate immediately and froze at −20° C. if it was not used on the same day. • b. If a frozen ARP was used, the plate was thawed and spun at 1000 rpm×1 min. • 2. Preparation of cells (adherent): • a. Aspirated media from cells. Washed cells with sterile 1XPBS. Aspirated PBS and added appropriate amount of Trypsin. • b. Once cells were fully trypsinized, added appropriate media to resuspend cells. Transferred cells to a 15 mL or 50 mL conical tube. • c. Counted cells on the Countess II Cell Counter. • 3. Plating of cells: • a. Prepared cells at appropriate plating density. Dispensed 12 μL of diluted cells per well of a Greiner 784080-384 well TC treated white plate using a Multidrop Combi to columns 1-23. Added 12 uL of appropriate phenol free media only to column 24. • b. Placed plates in 37° C. tissue culture incubator for appropriate treatment time (refer to “Assay” table). • 4. Prepared HTRF Lysis Buffer • a. Calculate the amount of HTRF lysis buffer master mix needed to perform the desired experiments plus any extra dead volume required for dispensing (4 μL required per well). […] Add 4 uL Lysis buffer master mix to all wells with sample or DMSO. Centrifuge the plates for 1 minute at 1000 rpm. • c. Incubate at room temperature for 30 minutes. • 5. Prepared HTRF Antibody • a.

T1 sequence (P42336 whole entry H1047R, the tested form may be a part): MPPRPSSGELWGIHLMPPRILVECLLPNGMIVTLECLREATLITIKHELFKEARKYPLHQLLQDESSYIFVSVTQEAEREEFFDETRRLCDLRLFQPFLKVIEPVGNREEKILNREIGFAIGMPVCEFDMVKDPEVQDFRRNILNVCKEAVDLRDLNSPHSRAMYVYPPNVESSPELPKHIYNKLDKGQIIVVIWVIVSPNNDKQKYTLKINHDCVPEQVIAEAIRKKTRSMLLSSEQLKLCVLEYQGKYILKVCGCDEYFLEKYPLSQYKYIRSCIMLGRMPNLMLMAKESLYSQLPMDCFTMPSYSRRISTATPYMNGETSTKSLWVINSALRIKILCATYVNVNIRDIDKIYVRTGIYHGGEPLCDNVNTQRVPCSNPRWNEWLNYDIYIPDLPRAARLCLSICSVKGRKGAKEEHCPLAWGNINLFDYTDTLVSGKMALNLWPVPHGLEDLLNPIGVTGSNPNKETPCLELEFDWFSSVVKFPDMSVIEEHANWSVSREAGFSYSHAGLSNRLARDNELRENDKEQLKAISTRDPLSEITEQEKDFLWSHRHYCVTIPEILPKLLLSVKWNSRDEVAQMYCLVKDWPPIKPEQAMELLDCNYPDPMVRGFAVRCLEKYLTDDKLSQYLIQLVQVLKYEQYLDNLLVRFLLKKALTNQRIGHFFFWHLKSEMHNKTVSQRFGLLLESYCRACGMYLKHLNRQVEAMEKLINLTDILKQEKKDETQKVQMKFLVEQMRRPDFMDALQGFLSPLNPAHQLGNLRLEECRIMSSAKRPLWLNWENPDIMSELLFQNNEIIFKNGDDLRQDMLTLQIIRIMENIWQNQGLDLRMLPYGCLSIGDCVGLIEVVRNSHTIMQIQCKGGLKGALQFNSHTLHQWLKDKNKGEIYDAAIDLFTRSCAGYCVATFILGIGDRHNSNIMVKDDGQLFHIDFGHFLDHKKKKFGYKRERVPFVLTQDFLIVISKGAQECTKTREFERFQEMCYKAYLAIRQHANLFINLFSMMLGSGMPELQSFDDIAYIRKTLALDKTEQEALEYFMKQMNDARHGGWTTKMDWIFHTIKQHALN
T1 sequence (P27986 322-694 partner limits assumed): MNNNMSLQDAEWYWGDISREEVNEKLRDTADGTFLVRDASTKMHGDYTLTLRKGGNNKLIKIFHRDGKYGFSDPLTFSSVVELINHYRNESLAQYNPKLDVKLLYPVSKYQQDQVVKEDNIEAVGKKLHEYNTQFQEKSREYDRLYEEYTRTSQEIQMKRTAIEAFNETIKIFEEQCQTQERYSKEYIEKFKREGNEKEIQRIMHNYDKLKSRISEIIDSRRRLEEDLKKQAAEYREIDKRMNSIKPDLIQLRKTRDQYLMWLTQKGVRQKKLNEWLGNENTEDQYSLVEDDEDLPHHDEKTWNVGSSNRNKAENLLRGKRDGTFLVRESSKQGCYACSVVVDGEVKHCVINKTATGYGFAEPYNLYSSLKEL

On to `Cc1c([C@@H](NC(=O)Nc2cnc(N)nc2)C(C)C)oc2c(F)cc(F)cc12` [Compound 75, (S)-1-(2-aminopyrimidin-5-yl)-3-(1-(5,7-difluoro-3-methylbenzofuran-2-yl)-2-methylpropyl)urea], for which the Kd (as a rule, the free concentration of one partner at which half of the binding sites on the other are occupied at equilibrium, for simple one-to-one binding) in test [1] was below 100 nM. Further, in test [2], the IC50 – broadly, the concentration needed to halve the response being measured – is below 1000 nM.

The record behind these values is patent US12084434B2 (Scorpion Therapeutics, Inc., priority 2021, dated 2024).
